{
  "source": "patent US5252322A",
  "about": "“Skin tanning compositions containing imidazoles” (The Gillette Company, priority 1992, dated 1993)",
  "key": {"tyrosinase [1]": {"system": "tyrosinase", "assay": "Tyrosinase activity screening in S91 melanoma cell line", "assay_type": "cell-based", "protocol": "(§1) A screening test is employed to select compounds in vitro before in vivo testing. The better compounds are found to stimulate higher levels of tyrosinase activity in cell cultures. Often the increase in tyrosinase activity is accompanied by a small decrease in cell number.\n(§2) To obtain more rapid results, the tests can be run with a melanoma cell line such as Cloudman S91 melanoma cells. However, if desired, normal human melanocytes (NHM) can also be employed. The compounds to be tested are added as aqueous solutions to the cell culture medium. After four days, the cells are harvested and counted, and a tyrosinase activity assay and a total protein determination are run on cell pellets."}, "tyrosinase [2]": {"system": "tyrosinase", "assay": "Tyrosinase activity screening in normal human melanocytes (NHM)", "assay_type": "cell-based", "conditions": "NHM, 0.5, 10 and 50 mM", "protocol": "as §1, §2"}, "tyrosinase [3]": {"system": "tyrosinase", "assay": "Tyrosinase activity assay of cell cultures stimulated with imidazole (cell line not stated)", "assay_type": "cell-based", "conditions": "four days, control (0 mM) 111.9", "protocol": "as §1, §2\nDose-response curves from tyrosinase assays of cells stimulated with imidazole have slopes of about 1.1."}, "[4]": {"system": "pigmented guinea pig skin", "assay": "In vivo tanning test on pigmented guinea pig skin", "protocol": "To confirm the results of in vitro testing, in vivo testing was conducted on pigmented guinea pig skin. Five animals were used in each of the treatment or control groups.\n1. Animals were clipped in a suitably pigmented area over the back or flank and chemically depilated prior to the first treatments. The area was at least 4 cm^2. The treatment site was 3 cm^2 and was carefully marked. Photographs of areas to be treated were taken prior to initial treatments. Animals were clipped as needed throughout the study, depilation was only done prior to evaluations.\n2. Concentrations of imidazole of 0.1, 0.5, 1.0 and 2.0M were applied as a liquid in 50% EtOH. 100 μL volumes were applied via pipette and glass rod with minimal rubbing of the skin.\n3. Treatments were made daily, 5 days per week for 3 weeks. Visual observations and photographic records were made at the study midpoint and 24 hours after the last treatment. Animals were clipped and depilated prior to these evaluations.\n4. The animals were monitored for two weeks following the last treatment. At the end of the fifth week, animals were photographed."}},
  "data": [
    {"smiles": "OCc1c[nH]cn1", "note": "[4-(hydroxymethyl)imidazole]", "values": [
      {"measurement": "tyrosinase activity versus control", "setting": "tyrosinase [1]; at 0.25 and 0.5 mM (tested 0.1, 0.25, 0.5 mM)", "result": "slightly increased"}
    ]},
    {"smiles": "O=C1NCCN1", "note": "[2-imidazolidone]", "values": [
      {"measurement": "tyrosinase activity versus control", "setting": "tyrosinase [1]; at 50 mM (tested 0.5, 10, 50 mM)", "result": "slight increase"},
      {"measurement": "tyrosinase activity versus control", "setting": "tyrosinase [2]", "result": "moderate inhibition"}
    ]},
    {"smiles": "N[C@@H](Cc1c[nH]cn1)C(=O)O", "note": "[L-histidine monochloride monohydrate]", "values": [
      {"measurement": "tyrosinase activity versus control", "setting": "tyrosinase [1]; at 0.5 mM (tested 0.5 and 10 mM)", "result": "increased tyrosinase activity"}
    ]},
    {"smiles": "c1c[nH]cn1", "note": "[imidazole]", "values": [
      {"measurement": "tyrosinase activity, DPM/1000 cells", "setting": "tyrosinase [3]; 0.5 mM", "result": 210.7, "unit": "DPM/1000 cells"},
      {"measurement": "tyrosinase activity, DPM/1000 cells", "setting": "tyrosinase [3]; 1.0 mM", "result": 263.2, "unit": "DPM/1000 cells"},
      {"measurement": "tyrosinase activity, DPM/1000 cells", "setting": "tyrosinase [3]; 5.0 mM", "result": 329.2, "unit": "DPM/1000 cells"},
      {"measurement": "tyrosinase activity, DPM/1000 cells", "setting": "tyrosinase [3]; 10.0 mM", "result": 516.1, "unit": "DPM/1000 cells"},
      {"measurement": "visual observation of treated sites (darkening)", "setting": "[4]; 0.1, 0.5, 1.0 and 2.0M in 50% EtOH, topical 100 μL daily, 5 days per week for 3 weeks", "result": "darkening for all areas"},
      {"measurement": "skin irritation", "setting": "[4]; 2.0M solution in 50% EtOH, topical", "result": "appeared to mildly irritate the skin of some of the animals"},
      {"measurement": "visual observation of treated sites (degree of tanning)", "setting": "[4]; at 0.5 to 1.0M in 50% EtOH, topical, 3 weeks", "result": "most tanning"},
      {"measurement": "course of darkening over time", "setting": "[4]; daily topical treatments for 3 weeks", "result": "continued to increase through the third week"},
      {"measurement": "number of treatments after which darkening was observed", "setting": "[4]; daily topical treatments, 5 days per week", "result": "5-10 treatments"}
    ]},
    {"smiles": "O=C(O)Cc1c[nH]cn1", "note": "[4-imidazoleacetic acid]", "values": [
      {"measurement": "tyrosinase activity versus control", "setting": "tyrosinase [1]; 0.5 and 10 mM, may be due to acidic pH of test solutions", "result": "dose dependent decrease"}
    ]},
    {"smiles": "O=Cc1ncc[nH]1", "note": "[2-imidazolecarboxaldehyde]", "values": [
      {"measurement": "tyrosinase activity versus control", "setting": "tyrosinase [1]; at 0.5 mM (tested 0.1, 0.25, 0.5 mM)", "result": "elevated"},
      {"measurement": "tyrosinase activity versus control", "setting": "tyrosinase [1]; at 0.1 and 0.25 mM", "result": "decreased activity"}
    ]}
  ]
}
